The record followed here is patent US7271264B2, “Pentacyclic oxepines and derivatives thereof, compositions and methods” (Eli Lilly and Company, priority 2002, dated 2007).

Assay [1] deals with T1, ERAlpha receptor (PanVera) (Homo sapiens, UniProt P03372).
T1 construct: purchased PanVera
T1 sequence (P03372 1-595): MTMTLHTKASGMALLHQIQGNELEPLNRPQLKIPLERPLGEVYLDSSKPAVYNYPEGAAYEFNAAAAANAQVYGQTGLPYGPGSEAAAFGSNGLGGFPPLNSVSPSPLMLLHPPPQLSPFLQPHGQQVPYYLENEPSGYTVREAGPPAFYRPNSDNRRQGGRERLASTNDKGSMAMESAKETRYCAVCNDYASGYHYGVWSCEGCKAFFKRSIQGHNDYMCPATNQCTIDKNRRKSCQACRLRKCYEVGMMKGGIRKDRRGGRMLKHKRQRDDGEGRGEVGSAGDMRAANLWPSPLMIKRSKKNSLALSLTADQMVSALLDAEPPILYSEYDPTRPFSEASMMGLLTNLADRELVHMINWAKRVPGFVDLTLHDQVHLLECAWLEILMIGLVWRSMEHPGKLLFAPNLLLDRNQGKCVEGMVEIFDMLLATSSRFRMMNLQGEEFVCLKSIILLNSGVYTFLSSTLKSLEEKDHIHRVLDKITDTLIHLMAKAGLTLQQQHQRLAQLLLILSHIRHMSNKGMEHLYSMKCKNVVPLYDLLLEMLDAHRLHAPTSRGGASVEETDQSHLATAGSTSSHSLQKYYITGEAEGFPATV
As to the kind of experiment: Competition binding assay, 3H-Estradiol, ERAlpha receptor. The note with it: 3H-Estradiol competition; IC50 converted to Ki using Cheng-Prusoff equation; read-out: ER binding Ki (ERα). Here is the method: (§1) Competition binding assay is run in a buffer containing 50 mM Hepes, pH 7.5, 1.5 mM EDTA, 150 mM NaCl, 10% glycerol, 1 mg/ml ovalbumin and 5 mM DTT, using 0.025 μCi per well ^3H-Estradiol(NEN #NET517 at 118 Ci/mmol, 1 mCi/ml), 10 ng/well ERAlpha or ERbeta receptor (PanVera). Competing compounds are added at 10 different concentrations. Non-specific binding is determined in the presence of 1 μM of 17-B Estradiol. The binding reaction (140 μl) is incubated for 4 hours at room temperature, then 70 μl of cold DCC buffer is added to each reaction (DCC buffer contains per 50 ml of assay buffer, 0.75 g of charcoal (Sigma) and 0.25 g of dextran (Pharmacia)). Plates are mixed 8 minutes on an orbital shaker at 4° C. Plates are then centrifuged at 3,000 rpm at 4° C. for 10 minutes. An aliquot of 120 μl of the mix is transferred to another 96-well, white flat bottom plate (Costar) and 175 μl of Wallac Optiphase “Hisafe 3” scintillation fluid is added to each well. Plates are sealed and shaken vigorously on an orbital shaker. After an incubation of 2.5 hrs, read plates in a Wallac Microbeta counter. The data is used to calculate an IC50 and % Inhibition at 10 μM. The Kd for ^3H-Estradiol is determined by saturation binding to ER alpha and ER beta receptors. The IC50 values for compounds are converted to Ki using Cheng-Prusoff equation and the Kd determined by saturation binding assay.

For assay [2], the target named is T2, ERbeta receptor (PanVera) (Homo sapiens, UniProt Q92731).
T2 construct: purchased PanVera
As to the kind of experiment: Competition binding assay, 3H-Estradiol, ERbeta receptor. The note with it: 3H-Estradiol competition; IC50 converted to Ki using Cheng-Prusoff equation; read-out: ER binding Ki (ERβ). The method, then: as §1

Assay [3] has as its system MCF-7 breast adenocarcinoma cells. The assay can be described thus: MCF-7 proliferation assay (14C-thymidine), antagonist mode. The following applies: E2 10 pM. The assay is classed as cell-based. Here is the method:
MCF-7 breast adenocarcinoma cells (ATCC HTB 22) are maintained in MEM (minimal essential medium, phenol red-free, Gibco BRL) supplemented with 10% fetal bovine serum (FBS) (VV), L-glutamine (2 mM), sodium pyruvate (1 mM), HEPES ((N-[2-hydroxyethyl]piperazine-N′-[2-ethanesulfonic acid]10 mM}, non-essential amino acids (0.1 mM) and Penicillin Streptomycin (1×). Seven days prior to assay, MCF-7 cells are switched to assay media which is the same as maintenance medium except supplemented with 10% dextran-coated charcoal-stripped fetal bovine serum (DCC-FBS) assay medium in place of 10% FBS. MCF-7 cells are removed from flasks using 10× Trypsin EDTA (phenol red free, Gibco BRL) and diluted to IX in (Ca++/Mg++ free HBSS (phenol red-free). Cells are adjusted to 80,000 cells/ml in assay medium. Approximately 8,000 cells (100 μl) are added to each well in 96 well Cytostar T scintillation plates (Amersham) and incubated at 37° C. in a 5% CO2 humidified incubator for 24 hours to allow cell adherence and equilibration after transfer. Serial dilutions of drugs are prepared in assay medium at 4× the final desired concentration). A 50 μl aliquot of drug dilutions (at 4× the final assay concentration) is transferred to duplicate wells followed by 50 μl assay medium for the agonist mode or 50 μl of 40 pM of E2 for the antagonist mode to a final volume of 200 μl. For each of the agonist plates, a basal level (media) and a maximum stimulated level (with 1 μM E2) is determined. For each of the antagonist plates, a basal level (media) and a E2 (10 pM) alone control is determined. After an additional 48 hours at 37° C. in a 5% CO2 humidified incubator, 20 μl of assay medium containing 0.01 μCi of ^14C-thymidine (52 mCi/mmol, 50 μCi/ul, Amersham) is added to each well. The plates are incubated overnight in the same incubator and then counted on the Wallac Microbeta counter. The data is averaged to calculate an IC50 and % inhibition @ 1 μM for the antagonist mode. For the agonist mode, an EC50 and percent of maximum E2 stimulation and concentration of maximum stimulation is calculated.

Assay [4] concerns Ishikawa human endometrial tumor cells. The assay can be described thus: Ishikawa alkaline phosphatase (PNPP) assay, agonist mode. The following applies: for Ishikawa Agonist % Eff: % efficacy versus the response to tamoxifen; for EC50: Homo sapiens, Ishikawa. The assay is classed as cell-based. From the text:
(§2) Ishikawa human endometrial tumor cells are maintained in MEM (minimum essential medium, with Earle's salts and L-Glutamine, Gibco BRL, Gaithersburg, Md.), supplemented with 10% fetal bovine serum (FBS) (V/V), (Gibco BRL). One day prior to assay, growth media is changed to assay medium, DMEM/F-12 (3:1) (Dulbecco's Modified Eagle Medium: Nutrient Mixture F-12,3:1 Mixture, phenol red-free, Gibco BRL) supplemented with 5% dextran coated charcoal stripped fetal bovine serum (DCC-FBS) (Hyclone, Logen, Utah), L-Glutamine (2 mM), MEM sodium pyruvate (1 mM), HEPES (N-[2-hydroxyethyl]piperazine-N′-[2-ethanesulfonic acid] 2 mM) all from Gibco BRL). After an overnight incubation, ishikawa cells are rinsed with Dulbecco's Phosphate Buffered Saline (1×) (D-PBS) without Ca^+2 and Mg^+2 (Gibco BRL), and trypsinized by a 3 minute incubation with 0.25% Trypsin/EDTA, phenol red-free (Gibco BRL). Cells are resuspended in assay medium and adjusted to 250,000 cells/ml. Approximately 25,000 cells in a 100 ul media are added to flat-bottom 96 wells microculture plates (Costar 3596) and incubated at 37° C. in a 5% CO2 humidified incubator for 24 hours. The next day, serial dilutions of compounds are prepared in assay medium (at 6 times the final concentration in the assay). The assay is run in dual mode, agonist and antagonist modes. For the agonist mode, plates receive 25 μl/well of assay medium followed by 25 μl/well of diluted compounds (at 6× the final concentrations). For the antagonist mode, plates receive 25 μl/well of 6 nM E2 (β-Estradiol, Sigma, St. Louis, Mo.) followed by 25 μl/well of diluted compounds (at 6× the final concentrations). After an additional 48-hour incubation at 37° C. in a 5% CO2 humidified incubator, media is aspirated from wells and 100 μl fresh assay medium is added to each microculture. Serial dilutions of compounds are prepared and added to the cells as described above. After an additional 72 hour incubation at 37° C. in a 5% CO2 humidified incubator, the assay is quenched by removing media and rinsing plates twice in Dulbecco's Phosphate Buffered Saline (1×) (D-PBS) (Gibco BRL). The plates are dried for 5 min and frozen at −70° C. for at least 1 hour. The plates are then removed from the freezer and allowed to thaw at room temperature. To each well, 100 μl of 1-Step™ PNPP (Pierce Chemical Company, Rockford, Ill.) is added. After a 20-minute incubation, plates are read on a spectophotometer at 405 nm. The data is fitted to a linear interpolation to derive EC50 (for agonist mode) or IC50 (for antagonist mode) values. For the agonist mode, a % efficacy for each compound is calculated versus the response to tamoxifen. For the antagonist mode, a % efficacy for each compound is calculated versus E2 (1 nM) alone.

For assay [5] the test system is unchanged. As to the kind of experiment: Ishikawa alkaline phosphatase (PNPP) assay, antagonist mode. The assay is classed as cell-based. The following applies: with E2 (1 nM).
Source text: as §2

The mark [6] stands for this setting: Homo sapiens, MCF7, antagonist mode.
[7] abbreviates: antagonist mode, hydrochloride salt.

Structures can show the parent of a compound that is named as a salt.

T2 sequence (Q92731 whole entry): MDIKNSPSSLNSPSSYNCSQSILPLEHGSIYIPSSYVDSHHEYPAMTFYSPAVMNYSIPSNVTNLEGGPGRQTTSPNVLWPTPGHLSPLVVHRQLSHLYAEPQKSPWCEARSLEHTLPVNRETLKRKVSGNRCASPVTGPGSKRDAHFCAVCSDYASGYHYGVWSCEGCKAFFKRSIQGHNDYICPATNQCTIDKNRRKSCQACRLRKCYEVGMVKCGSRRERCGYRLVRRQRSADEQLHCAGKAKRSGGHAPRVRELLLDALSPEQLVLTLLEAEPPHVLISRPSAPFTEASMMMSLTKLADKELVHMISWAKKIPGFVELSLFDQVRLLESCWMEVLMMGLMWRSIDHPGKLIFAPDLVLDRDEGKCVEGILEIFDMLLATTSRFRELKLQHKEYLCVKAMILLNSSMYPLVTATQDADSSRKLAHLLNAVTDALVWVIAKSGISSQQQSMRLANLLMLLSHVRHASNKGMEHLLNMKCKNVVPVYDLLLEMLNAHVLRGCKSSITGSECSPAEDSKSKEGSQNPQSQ

As to `COc1ccc2c3c(ccc2c1)-c1ccccc1COC3c1ccc(OCCN2CCCCC2)cc1` (stereo not drawn) [Example 3, 1-{2-[4-(8-Methoxy-11,13-dihydro-12-oxa-benzo[3,4]cyclohepta[1,2-a]naphthalen-11-yl)-phenoxy]-ethyl}-piperidine], the Ki was 0.14 µM in assay [1] and 0.43 µM in assay [2]. The IC50 in assay [3] (setting [6]) amounted to 0.48 µM; in assay [5] (Homo sapiens, Ishikawa) it was 0.34 µM. The “Ishikawa Agonist % Eff” value in assay [4] amounted to 21%. The 50% effective concentration (EC50) in assay [4] came out at 0.26 µM.

As for `Cl.Oc1ccc2c3c(ccc2c1)-c1ccc(F)cc1COC3c1ccc(OCCN2CCCCC2)cc1` (single isomer, unassigned) [Example 8, 2-Fluoro-11-[4-(2-piperidin-1-yl-ethoxy)-phenyl]-11,13-dihydro-12-oxa-benzo[3,4]cyclohepta[1,2-a]naphthalen-8-ol hydrochloride salt], the values for the inhibition constant Ki in assay [1] and in assay [2] were 0.0007 µM and 0.0014 µM, respectively. Further, the half-inhibitory concentration (IC50) in assay [3] (setting [7]) turned out to be 0.0004 µM; in assay [5] (hydrochloride salt) it was 0.0043 µM. Besides, the “Ishikawa Agonist % Eff” value in assay [4] (hydrochloride salt) worked out at 8.8%.

With `Oc1ccc2c3c(ccc2c1)-c1ccccc1COC3c1ccc(OCCN2CCCCC2)cc1` (stereo not drawn) [Example 4, 11-[4-(2-Piperidin-1-yl-ethoxy)-phenyl]-11,13-dihydro-12-oxa-benzo[3,4]cyclohepta[1,2-a]naphthalen-8-ol trifluoroacetate], the Ki worked out at 0.0026 µM in assay [1] and 0.004 µM in assay [2]. For the same compound, the IC50 in assay [3] (setting [6]) was found to be 0.0024 µM; in assay [5] (Homo sapiens, Ishikawa), 0.036 µM. For the same compound, the “Ishikawa Agonist % Eff” value in assay [4] was determined as 17%. Also, in assay [4], a half-maximal effect (EC50) was put at 0.0014 µM.

Take `Cl.Oc1ccc2c3c(ccc2c1)-c1ccc(F)cc1COC3c1ccc(OCCN2CCCCC2)cc1` (single isomer, unassigned) [Example 9, 2-Fluoro-11-[4-(2-piperidin-1-yl-ethoxy)-phenyl]-11,13-dihydro-12-oxa-benzo[3,4]cyclohepta[1,2-a]naphthalen-8-ol hydrochloride salt]: the inhibition constant (Ki) in assay [1] was 0.062 µM; in assay [2], 0.089 µM. Also, the IC50 in assay [3] (setting [7]) is 0.068 µM; in assay [5] (hydrochloride salt), 0.35 µM. Further, in assay [4] (hydrochloride salt), the “Ishikawa Agonist % Eff” value stood at 11%.

Turning to `Cl.Oc1ccc2c(c1)COC(c1ccc(OCCN3CCCCC3)cc1)c1c-2ccc2cc(O)ccc12` (single isomer, unassigned) [Example 6, 11-[4-(2-Piperidin-1-yl-ethoxy)-phenyl]-11,13-dihydro-12-oxa-benzo[3,4]cyclohepta[1,2-a]naphthalene-2,8-diolhydrochloride salt], the Ki in assay [1] stood at 0.058 µM; in assay [2], 0.12 µM. The results for the IC50 in assay [3] (antagonist mode) and in assay [5] were 0.16 µM and 0.74 µM, respectively. The “Ishikawa Agonist % Eff” value in assay [4] is 38%. In addition, the concentration giving a half-maximal response (EC50) in assay [4] stood at 0.054 µM.

For `Cl.Oc1ccc2c(c1)COC(c1ccc(OCCN3CCCCC3)cc1)c1c-2ccc2cc(O)ccc12` (single isomer, unassigned) [Example 7, 11-[4-(2-Piperidin-1-yl-ethoxy)-phenyl]-11,13-dihydro-12-oxa-benzo[3,4]cyclohepta[1,2-a]naphthalene-2,8-diolhydrochloride salt], the inhibition constant Ki in assay [1] came out at 0.0007 µM; in assay [2], 0.0017 µM. In addition, the IC50 came out at 0.0004 µM in assay [3] (antagonist mode) and 0.0022 µM in assay [5]. Further, the “Ishikawa Agonist % Eff” value in assay [4] amounted to 2.6%.

Take `COc1ccc2c3c(sc2c1)-c1ccccc1COC3c1ccc(OCCN2CCCCC2)cc1` (stereo not drawn) [Example 1, 1-{2-[4-(10-Methoxy-5H,7H-6-oxa-12-thia-dibenzo[a,e]azulen-7-yl)-phenoxy]-ethyl}-piperidine]: the Ki in assay [1] came to 0.24 µM. Further, in assay [4], the “Ishikawa Agonist % Eff” value is on record as 31% and the EC50 stood at 0.3 µM.

Take `Oc1ccc2c3c(sc2c1)-c1ccccc1COC3c1ccc(OCCN2CCCCC2)cc1` (stereo not drawn) [Example 2, 7-[4-(2-Piperidin-1-yl-ethoxy)-phenyl]-5H,7H-6-oxa-12-thia-dibenzo[a,e]azulen-10-ol]: the figures for the inhibition constant (Ki) in assay [1] and in assay [2] were 0.0029 µM and 0.019 µM, respectively. The IC50 in assay [3] (setting [6]) was found to be 0.036 µM; in assay [5] (Homo sapiens, Ishikawa), 0.27 µM. Also, in assay [4], the “Ishikawa Agonist % Eff” value was determined as 41%. In addition, in assay [4], the 50% effective concentration (EC50) was determined as 0.0028 µM.
